# Measured values as given in ChEMBL document CHEMBL4715829, “Heterodimeric Rifampicin-Tobramycin conjugates break intrinsic resistance of Pseudomonas aeruginosa to doxycycline and chloramphenicol in vitro and in a Galleria mellonella in vivo model” (Eur J Med Chem, 2019).
# Legend:
# HepG2 = experiment: Cytotoxicity against human HepG2 cells assessed as cell viability at 50 uM incubated for 48 hrs in presence of doxycycline by prestoblue assay; assay type: cell-based; details: hepg2, 48 h
# Pseudomonas aeruginosa [1] = experiment: Antibacterial activity against Pseudomonas aeruginosa 101243 assessed as fractional inhibitory concentration incubated for 18 hrs in presence of rifampicin by broth microdilution assay; assay type: functional
# Pseudomonas aeruginosa [2] = experiment: Antibacterial activity against Pseudomonas aeruginosa 101243 assessed as potentiation of doxycycline-induced antibacterial activity by measuring doxycycline MIC at 9.8 uM incubated for 18 hrs in presence of doxycycline by broth microdilution assay (reference value: 4 ug/ml); assay type: functional
# Pseudomonas aeruginosa [3] = experiment: Antibacterial activity against Pseudomonas aeruginosa 91433 assessed as fractional inhibitory concentration index incubated for 18 hrs in presence of minocycline by broth microdilution assay; assay type: functional
# Pseudomonas aeruginosa [4] = experiment: Antibacterial activity against Pseudomonas aeruginosa 100036 assessed as fractional inhibitory concentration incubated for 18 hrs in presence of tigecycline by broth microdilution assay; assay type: functional
# Pseudomonas aeruginosa [5] = experiment: Antibacterial activity against Pseudomonas aeruginosa 100036 assessed as fractional inhibitory concentration index incubated for 18 hrs in presence of tigecycline by broth microdilution assay; assay type: functional
# Pseudomonas aeruginosa [6] = experiment: Potentiation of chloramphenicol-induced antibacterial activity against Pseudomonas aeruginosa 259-96918 assessed as fold change in chloramphenicol MIC at 9.8 uM incubated for 18 hrs in presence of chloramphenicol by broth microdilution assay relative to control; assay type: functional
# Pseudomonas aeruginosa [7] = experiment: Antibacterial activity against Pseudomonas aeruginosa 114228 assessed as potentiation of doxycycline-induced antibacterial activity by measuring doxycycline MIC at 9.8 uM incubated for 18 hrs in presence of doxycycline by broth microdilution assay (reference value: 32 ug/ml); assay type: functional
# Pseudomonas aeruginosa [8] = experiment: Antibacterial activity against Pseudomonas aeruginosa 264-101354 assessed as fractional inhibitory concentration incubated for 18 hrs in presence of rifampicin by broth microdilution assay; assay type: functional
# Pseudomonas aeruginosa [9] = experiment: Potentiation of doxycycycline-induced bactericidal activity against Pseudomonas aeruginosa PAO1 assessed as bacterial viability at 9.8 microM incubated for 9 hrs in LB medium in presence of doxycycline followed by plating on agar plate and measured after 20 hrs by time-kill assay; assay type: functional; details: time 29 hrs
# Pseudomonas aeruginosa [10] = experiment: Antibacterial activity against Pseudomonas aeruginosa 260-97103 infected in Galleria mellonella larvae assessed as survival of larvae at 100 mg/kg treated at 3 hrs post-infection in presence of doxycycline and measured after 18 hrs relative to control; assay type: functional
# Pseudomonas aeruginosa [11] = experiment: Antibacterial activity against Pseudomonas aeruginosa 100036 assessed as potentiation of chloramphenicol-induced antibacterial activity by measuring chloramphenicol MIC at 9.8 uM incubated for 18 hrs in presence of chloramphenicol by broth microdilution assay (reference value: 1024 ug/ml); assay type: functional
# Pseudomonas aeruginosa [12] = experiment: Potentiation of doxycycline-induced antibacterial activity against Pseudomonas aeruginosa 91433 assessed as fold change in doxycycline MIC at 9.8 uM incubated for 18 hrs in presence of doxycycline by broth microdilution assay relative to control; assay type: functional
# Pseudomonas aeruginosa [13] = experiment: Antibacterial activity against Pseudomonas aeruginosa 260-97103 infected in Galleria mellonella larvae assessed as survival of larvae treated at 3 hrs post-infection in presence of chloramphenicol and measured every 6 hrs for 36 hrs; assay type: functional, organism-based; details: dose 75-100 mg/kg
# Klebsiella pneumoniae = experiment: Potentiation of chloramphenicol-induced antibacterial activity against Klebsiella pneumoniae ATCC 16381 assessed as fold change in chloramphenicol MIC at 9.8 uM incubated for 18 hrs in presence of chloramphenicol by broth microdilution assay relative to control; assay type: functional
# Pseudomonas aeruginosa [14] = experiment: Potentiation of doxycycline-induced antibacterial activity against Pseudomonas aeruginosa PAO750 harboring MexAB-OprM, MexCD-OprJ, MexEF-OprN, Mex JK, MexXY and the OM protein OpmH deletion mutant assessed as fold change in doxycycline MIC at <=9.8 uM incubated for 18 hrs in presence of doxycycline by broth microdilution assay; assay type: functional; details: dose microM <=9.8
# HEK293 = experiment: Cytotoxicity against human HEK293 cells assessed as cell viability at 50 uM incubated for 48 hrs in presence of doxycycline by prestoblue assay; assay type: cell-based; details: hek293, 48 h
# Pseudomonas aeruginosa [15] = experiment: Potentiation of chloramphenicol-induced antibacterial activity against Pseudomonas aeruginosa 114228 assessed as fold change in chloramphenicol MIC at 9.8 uM incubated for 18 hrs in presence of chloramphenicol by broth microdilution assay relative to control; assay type: functional
# Pseudomonas aeruginosa [16] = experiment: Antibacterial activity against Pseudomonas aeruginosa 100036 assessed as reduction in bacterial growth by measuring doxycycline MIC at 8 ug/ml incubated for 18 hrs in presence of doxycycline by broth microdilution assay (reference value: 64 ug/ml); assay type: functional; details: dose 8 µg/ml
# Pseudomonas aeruginosa [17] = experiment: Antibacterial activity against Pseudomonas aeruginosa 260-97103 assessed as reduction in bacterial growth by measuring chloramphenicol MIC at 8 ug/ml incubated for 18 hrs in presence of chloramphenicol by broth microdilution assay (reference value: 128 ug/ml); assay type: functional; details: dose 8 µg/ml
# Pseudomonas aeruginosa [18] = experiment: Antibacterial activity against Pseudomonas aeruginosa 259-96918 assessed as fractional inhibitory concentration incubated for 18 hrs in presence of chloramphenicol by broth microdilution assay; assay type: functional
# Pseudomonas aeruginosa [19] = experiment: Antibacterial activity against Pseudomonas aeruginosa 100036 assessed as reduction in bacterial growth by measuring chloramphenicol MIC at 8 ug/ml incubated for 18 hrs in presence of chloramphenicol by broth microdilution assay (reference value: 1024 ug/ml); assay type: functional; details: dose 8 µg/ml
# Pseudomonas aeruginosa [20] = experiment: Antibacterial activity against Pseudomonas aeruginosa 262-101856 assessed as reduction in bacterial growth by measuring doxycycline MIC at 16 ug/ml incubated for 18 hrs in presence of doxycycline by broth microdilution assay (reference value: 1024 ug/ml); assay type: functional; details: dose 16 µg/ml
# Pseudomonas aeruginosa [21] = experiment: Antibacterial activity against Pseudomonas aeruginosa 101885 assessed as potentiation of chloramphenicol-induced antibacterial activity by measuring chloramphenicol MIC at 7.6 uM incubated for 18 hrs in presence of chloramphenicol by broth microdilution assay (reference value: 512 ug/ml); assay type: functional
# Pseudomonas aeruginosa [22] = experiment: Potentiation of chloramphenicol-induced antibacterial activity against Pseudomonas aeruginosa 262-101856 assessed as fold change in chloramphenicol MIC at 7.6 uM incubated for 18 hrs in presence of chloramphenicol by broth microdilution assay relative to control; assay type: functional
# Pseudomonas aeruginosa [23] = experiment: Antibacterial activity against Pseudomonas aeruginosa 260-97103 assessed as potentiation of doxycycline-induced antibacterial activity by measuring doxycycline MIC at 7.6 uM incubated for 18 hrs in presence of doxycycline by broth microdilution assay (reference value: 16 ug/ml); assay type: functional
# Pseudomonas aeruginosa [24] = experiment: Antibacterial activity against Pseudomonas aeruginosa 100036 assessed as potentiation of doxycycline-induced antibacterial activity by measuring doxycycline MIC at 7.6 uM incubated for 18 hrs in presence of doxycycline by broth microdilution assay (reference value: 64 ug/ml); assay type: functional
# Escherichia coli = experiment: Potentiation of chloramphenicol-induced antibacterial activity against Escherichia coli ATCC 25922 assessed as fold change in chloramphenicol MIC at 7.6 uM incubated for 18 hrs in presence of chloramphenicol by broth microdilution assay relative to control; assay type: functional
# Pseudomonas aeruginosa [25] = experiment: Potentiation of doxycycline-induced antibacterial activity against Pseudomonas aeruginosa 262-101856 assessed as fold change in doxycycline MIC at 7.6 uM incubated for 18 hrs in presence of doxycycline by broth microdilution assay relative to control; assay type: functional
compound,measurement,setting,value
CO[C@H]1/C=C/O[C@@]2(C)Oc3c(C)c(O)c4c(O)c(c(/C=N/N5CCN(Cc6cn(CCCCCCO[C@@H]7[C@@H](O[C@H]8O[C@H](CO)[C@@H](O)[C@H](N)[C@H]8O)[C@H](N)C[C@H](N)[C@H]7O[C@H]7O[C@H](CN)[C@@H](O)C[C@H]7N)nn6)CC5)c(O)c4c3C2=O)NC(=O)/C(C)=C\C=C\[C@H](C)[C@H](O)[C@@H](C)[C@@H](O)[C@@H](C)[C@H](OC(C)=O)[C@@H]1C.Cl.Cl.Cl.Cl.Cl,Activity,HepG2,Non-Toxic
same,FIC,Pseudomonas aeruginosa [1],0.063
same,MIC,Pseudomonas aeruginosa [2],0.25 µg/mL
same,fractional inhibitory concentration index (FICI),Pseudomonas aeruginosa [3],<0.25
same,FIC,Pseudomonas aeruginosa [4],0.004
same,fractional inhibitory concentration index (FICI),Pseudomonas aeruginosa [5],0.13
same,fold change (FC),Pseudomonas aeruginosa [6],4
same,MIC,Pseudomonas aeruginosa [7],1 µg/mL
same,FIC,Pseudomonas aeruginosa [8],0.016
same,Activity,Pseudomonas aeruginosa [9],<10 CFU/ml
same,survival at 100 mg/kg,Pseudomonas aeruginosa [10],87%
same,MIC,Pseudomonas aeruginosa [11],4 µg/mL
same,fold change (FC),Pseudomonas aeruginosa [12],4
same,Activity,Pseudomonas aeruginosa [13],Dose-dependent effect
same,fold change (FC),Klebsiella pneumoniae,0
same,fold change (FC),Pseudomonas aeruginosa [14],4
same,Activity,HEK293,Non-Toxic
same,fold change (FC),Pseudomonas aeruginosa [15],4
NC[C@H]1O[C@H](O[C@H]2[C@H](O)[C@@H](O[C@H]3O[C@H](CO)[C@@H](O)[C@H](N)[C@H]3O)[C@H](N)C[C@@H]2N)[C@H](N)C[C@@H]1O [TOBRAMYCIN],MIC,Pseudomonas aeruginosa [16],64 µg/mL
same,MIC,Pseudomonas aeruginosa [17],128 µg/mL
same,FIC,Pseudomonas aeruginosa [18],0.25
same,MIC,Pseudomonas aeruginosa [19],1020 µg/mL
CO[C@H]1/C=C/O[C@@]2(C)Oc3c(C)c(O)c4c(O)c(c(/C=N/N5CCN(C)CC5)c(O)c4c3C2=O)NC(=O)/C(C)=C\C=C\[C@H](C)[C@H](O)[C@@H](C)[C@@H](O)[C@@H](C)[C@H](OC(C)=O)[C@@H]1C [RIFAMPIN],MIC,Pseudomonas aeruginosa [20],1020 µg/mL
CO[C@H]1/C=C/O[C@@]2(C)Oc3c(C)c(O)c4c(O)c(c(/C=N/N5CCN(Cc6cn(CCCCCCCCCCCCO[C@@H]7[C@@H](O[C@H]8O[C@H](CO)[C@@H](O)[C@H](N)[C@H]8O)[C@H](N)C[C@H](N)[C@H]7O[C@H]7O[C@H](CN)[C@@H](O)C[C@H]7N)nn6)CC5)c(O)c4c3C2=O)NC(=O)/C(C)=C\C=C\[C@H](C)[C@H](O)[C@@H](C)[C@@H](O)[C@@H](C)[C@H](OC(C)=O)[C@@H]1C.O=C(O)C(F)(F)F.O=C(O)C(F)(F)F.O=C(O)C(F)(F)F.O=C(O)C(F)(F)F.O=C(O)C(F)(F)F,MIC,Pseudomonas aeruginosa [21],4 µg/mL
same,fold change (FC),Pseudomonas aeruginosa [22],4
same,MIC,Pseudomonas aeruginosa [23],0.125 µg/mL
same,MIC,Pseudomonas aeruginosa [24],0.5 µg/mL
same,fold change (FC),Escherichia coli,0
same,fold change (FC),Pseudomonas aeruginosa [25],4
